Experimental findings from PubChem BioAssay (NCI) are described below.

Values joined by “and” are separate entries in the source; they are usually repeats but may differ in a detail not shown here. Identical values can stand only once.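 Grown in 96-well plates, cells were treated for 48 hours with each compound at five concentrations. Insufficient inhibition: endpoint recorded as highest concentration tested. GI50 marks 50% less growth. TGI: total growth inhibition.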

Among the test systems are A549 NSCLC; ACHN renal; HCC-2998 colon; HT29 colon; MALME-3M melanoma; NCI-H226 lung; NCI-H23 lung; RPMI-8226 leukemia; SF-539 CNS; SK-MEL-5 melanoma.
Common to all, as to experiment: NCI-60 cell line screen, 48 h

Consider `Cc1ccc(Nc2nc(NCCO)c3ccccc3n2)cc1C`, for which the GI50 was 5.4 µM with A549 NSCLC; 11 µM in the assay on ACHN renal; 2.44 µM in the assay with HCC-2998 colon; 3.25 µM in the assay with HT29 colon; 1.85 µM in the assay on MALME-3M melanoma; 10.8 µM in the assay on NCI-H226 lung. In addition, the GI50 with NCI-H23 lung was 9.74 µM; with RPMI-8226 leukemia it was 2.55 µM; in the assay on SF-539 CNS it was 5.87 µM; in the assay with SK-MEL-5 melanoma, 2.78 µM. In addition, the TGI is 22.7 µM in the assay on A549 NSCLC; 23.9 µM in the assay with ACHN renal; 5.96 µM in the assay on HCC-2998 colon; 10.6 µM with HT29 colon; 3.77 µM in the assay on MALME-3M melanoma; 22.7 µM in the assay with NCI-H226 lung. Further, the TGI in the assay with NCI-H23 lung was 22.5 µM; with RPMI-8226 leukemia, 9.46 µM; in the assay with SF-539 CNS, 19.7 µM; in the assay on SK-MEL-5 melanoma it was 10.5 µM.
On to `COc1ccc(C(=O)Cn2c(C(=O)c3ccc(Cl)cc3)nc3ccccc32)cc1`, for which the GI50 in the assay on A549 NSCLC is 29.8 µM; in the assay with ACHN renal, 22.9 µM; in the assay with HCC-2998 colon, 6.55 µM; in the assay on HT29 colon, 7.58 µM; in the assay with MALME-3M melanoma it was greater than 56.3 µM; with NCI-H226 lung, greater than 100 µM. Also, the GI50 in the assay with NCI-H23 lung was greater than 57.9 µM; in the assay on RPMI-8226 leukemia it was 1.75 µM; in the assay with SF-539 CNS it was 99.3 µM; in the assay on SK-MEL-5 melanoma it was 5.95 µM. Moreover, the TGI with A549 NSCLC, in the assay with ACHN renal, in the assay on HCC-2998 colon, in the assay with HT29 colon, in the assay on MALME-3M melanoma and with NCI-H226 lung was greater than 100 µM each time. In addition, the TGI in the assay with NCI-H23 lung is greater than 100 µM; in the assay on RPMI-8226 leukemia, greater than 77.8 µM; in the assay on SF-539 CNS it was greater than 100 µM; in the assay on SK-MEL-5 melanoma, greater than 100 µM.
In the case of `NC(=S)/N=C/c1c(O)c2ccccc2oc1=O`, the TGI was greater than 100 µM with A549 NSCLC; greater than 100 µM with ACHN renal; greater than 100 µM in the assay with HCC-2998 colon; greater than 100 µM with HT29 colon; 99.4 µM in the assay on MALME-3M melanoma; greater than 100 µM in the assay on NCI-H226 lung. The TGI with NCI-H23 lung, in the assay with RPMI-8226 leukemia, in the assay on SF-539 CNS and in the assay on SK-MEL-5 melanoma was greater than 100 µM each time.
In the case of `O=C(Nc1ccc(-c2nc3cc4ccccc4cc3[nH]2)cc1)c1cccc(Br)c1`, the GI50 with A549 NSCLC was 2.83 µM; in the assay on ACHN renal, 12.3 µM; with HCC-2998 colon, 31.1 µM; with HT29 colon it was 2.77 µM; with MALME-3M melanoma, 12.8 µM; in the assay on NCI-H226 lung, 21.4 µM. For the same compound, the GI50 is 19.2 µM in the assay with NCI-H23 lung, 10.6 µM in the assay with RPMI-8226 leukemia, 12.9 µM in the assay with SF-539 CNS and 6.58 µM in the assay on SK-MEL-5 melanoma. Further, the TGI is 10.6 µM in the assay on A549 NSCLC; 31 µM with ACHN renal; greater than 100 µM with HCC-2998 colon; 11.9 µM with HT29 colon; 28.9 µM with MALME-3M melanoma; 50.2 µM in the assay on NCI-H226 lung. The TGI was found to be 50.3 µM in the assay on NCI-H23 lung, 56.8 µM in the assay on RPMI-8226 leukemia, 26.7 µM with SF-539 CNS and 21.4 µM in the assay on SK-MEL-5 melanoma.
Turning to `CC(C)C[C@H](NC(=O)[C@H](Cc1ccccc1)n1ccc(N2CCCCC2)cc1=O)B(O)O`, the GI50 in the assay with A549 NSCLC is 2.39 µM; in the assay with ACHN renal, 0.406 µM; in the assay with HCC-2998 colon, 1.14 µM; in the assay on HT29 colon, 0.449 µM; in the assay with MALME-3M melanoma it was 0.682 µM; in the assay with NCI-H226 lung it was 0.188 µM. Moreover, the GI50 in the assay on NCI-H23 lung is 1.59 µM; in the assay with RPMI-8226 leukemia, 0.321 µM; in the assay with SF-539 CNS, 0.206 µM; with SK-MEL-5 melanoma, 0.367 µM. Further, the TGI in the assay with A549 NSCLC is greater than 100 µM; in the assay with ACHN renal, greater than 100 µM; in the assay on HCC-2998 colon, 3.09 µM; in the assay with HT29 colon, greater than 100 µM; with MALME-3M melanoma it was 7.95 µM; in the assay on NCI-H226 lung it was 0.423 µM. For the same compound, the TGI with NCI-H23 lung is greater than 100 µM; in the assay on RPMI-8226 leukemia it was greater than 100 µM; in the assay on SF-539 CNS it was 0.604 µM; in the assay with SK-MEL-5 melanoma, 3.11 µM.
Turning to `Cc1ccc(NC(c2ccccc2)c2ccc3cccnc3c2O)cc1` (stereo not drawn), the TGI is 41.3 µM in the assay with A549 NSCLC; 15.5 µM in the assay on ACHN renal; greater than 100 µM with HCC-2998 colon; 13.6 µM in the assay with HT29 colon; 13.8 µM in the assay with MALME-3M melanoma; 8.4 µM in the assay with NCI-H226 lung. In addition, the TGI worked out at 19.2 µM with NCI-H23 lung, 19.2 µM with RPMI-8226 leukemia, 8.18 µM in the assay with SF-539 CNS and 15.4 µM in the assay on SK-MEL-5 melanoma.
Regarding `Cc1[nH]c(=O)[nH]c(=O)c1N(CCF)CCCl`, the GI50 in the assay with A549 NSCLC is 335 µM and 455 µM; with HCC-2998 colon it was 220 µM; with MALME-3M melanoma, 219 µM and 393 µM; with NCI-H226 lung it was 249 µM; with NCI-H23 lung, 255 µM and 512 µM; with RPMI-8226 leukemia, 161 µM and 190 µM and 122 µM. Moreover, the GI50 in the assay with SF-539 CNS was 499 µM and 153 µM; with SK-MEL-5 melanoma, 388 µM. The TGI is 990 µM and 1210 µM and 1850 µM in the assay with A549 NSCLC; 1220 µM with ACHN renal; 606 µM and 668 µM and 751 µM with HCC-2998 colon; 1370 µM and 1230 µM in the assay on HT29 colon; 410 µM and 757 µM and 721 µM in the assay on MALME-3M melanoma; 584 µM and 1960 µM and 1390 µM with NCI-H226 lung. The TGI in the assay with NCI-H23 lung is 635 µM and 2500 µM and 631 µM; with RPMI-8226 leukemia, 515 µM and 838 µM and 1270 µM; in the assay with SF-539 CNS it was 478 µM and 1680 µM and 768 µM; with SK-MEL-5 melanoma it was 394 µM and 788 µM and 699 µM.
Regarding `O=C(O)c1ccc(S(=O)(=O)c2ccccc2)c([N+](=O)[O-])c1`, the TGI in the assay with A549 NSCLC, in the assay on ACHN renal, in the assay with HCC-2998 colon, with HT29 colon, with MALME-3M melanoma and with NCI-H226 lung was greater than 100 µM each time. In addition, the TGI in the assay on NCI-H23 lung, in the assay with RPMI-8226 leukemia, in the assay with SF-539 CNS and in the assay on SK-MEL-5 melanoma was greater than 100 µM each time.
Regarding `COc1cccc(-c2nn(-c3ccccc3)cc2-c2ccnc(NCCNS(=O)(=O)c3ccc(Cl)cc3)c2)c1`, the GI50 in the assay with A549 NSCLC is 5.86 µM; with ACHN renal, 4.56 µM; in the assay with HCC-2998 colon, 4.26 µM; with HT29 colon, 3.37 µM; in the assay with MALME-3M melanoma, 3.8 µM; in the assay with NCI-H226 lung, 7.21 µM. The GI50 is 4.32 µM with NCI-H23 lung, 2.74 µM in the assay with RPMI-8226 leukemia, 7.35 µM in the assay on SF-539 CNS and 1.94 µM in the assay on SK-MEL-5 melanoma. Also, the TGI was greater than 100 µM in the assay with A549 NSCLC; greater than 100 µM in the assay with ACHN renal; greater than 100 µM in the assay on HCC-2998 colon; 11.3 µM in the assay with HT29 colon; greater than 100 µM in the assay on MALME-3M melanoma; greater than 100 µM with NCI-H226 lung. Besides, the TGI is greater than 100 µM with NCI-H23 lung, 13.3 µM with RPMI-8226 leukemia, greater than 100 µM with SF-539 CNS and 3.88 µM in the assay with SK-MEL-5 melanoma.
